This note sets out measurements from ChEMBL document CHEMBL1909046, “DrugMatrix in vitro pharmacology data”.

The IC50 is the point on the concentration scale where inhibition reaches its midpoint. One may read the Ki as a measure of affinity in units of concentration, obtained from inhibition or displacement.

The target of test [1] is T1, Alpha-2A adrenergic receptor (Homo sapiens, UniProt P08913). Also: in other assays of this panel Not Active means under 50% inhibition at 10 µM.
T1 sequence (P08913 whole entry): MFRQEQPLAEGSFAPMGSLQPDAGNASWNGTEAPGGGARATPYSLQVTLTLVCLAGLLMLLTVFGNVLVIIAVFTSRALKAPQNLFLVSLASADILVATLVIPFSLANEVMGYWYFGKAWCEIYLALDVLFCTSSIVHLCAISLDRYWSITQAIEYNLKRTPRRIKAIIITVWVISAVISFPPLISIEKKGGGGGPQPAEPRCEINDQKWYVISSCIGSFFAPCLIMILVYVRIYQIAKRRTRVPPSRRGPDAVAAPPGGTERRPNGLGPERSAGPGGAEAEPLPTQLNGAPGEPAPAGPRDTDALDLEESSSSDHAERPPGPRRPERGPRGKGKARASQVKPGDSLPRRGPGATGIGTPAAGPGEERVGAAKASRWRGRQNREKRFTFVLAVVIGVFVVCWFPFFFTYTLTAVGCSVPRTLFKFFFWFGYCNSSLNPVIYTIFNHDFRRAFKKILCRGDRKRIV
Type of test: cell membranes, Sf9, Membrane. Conditions: for Ki: read-out: Ki.

The nature of test [2]: DRUGMATRIX: Glutamate, AMPA radioligand binding (ligand: [3H] AMPA). Type of test: cell membranes, Rattus norvegicus, Wistar, Cerebral cortex, Membrane. Conditions: Not Active = under 50% inhibition at 10 µM.
A short description of test [3]: DRUGMATRIX: Imidazoline I2, Central radioligand binding (ligand: [3H] Idazoxan). Conditions: Not Active = under 50% inhibition at 10 µM. Type of test: cell membranes, Rattus norvegicus, Wistar, Cerebral cortex, Membrane.
Test [4] can be described thus: DRUGMATRIX: Nicotinic Acetylcholine radioligand binding (ligand: [125I] Epibatidine). Type of test: cell membranes, Membrane. As to conditions: imr-32; Not Active = under 50% inhibition at 10 µM.
For test [5], the target named is Mitogen-activated protein kinase 3 (Homo sapiens, UniProt P27361). The test can be described thus: DRUGMATRIX: Protein Serine/Threonine Kinase, ERK1 enzyme inhibition (substrate: Myelin Basic Protein). As to conditions: Not Active = under 50% inhibition at 10 µM. On the set-up: species or system Escherichia coli.
Chain of Mitogen-activated protein kinase 3 (P27361 whole entry): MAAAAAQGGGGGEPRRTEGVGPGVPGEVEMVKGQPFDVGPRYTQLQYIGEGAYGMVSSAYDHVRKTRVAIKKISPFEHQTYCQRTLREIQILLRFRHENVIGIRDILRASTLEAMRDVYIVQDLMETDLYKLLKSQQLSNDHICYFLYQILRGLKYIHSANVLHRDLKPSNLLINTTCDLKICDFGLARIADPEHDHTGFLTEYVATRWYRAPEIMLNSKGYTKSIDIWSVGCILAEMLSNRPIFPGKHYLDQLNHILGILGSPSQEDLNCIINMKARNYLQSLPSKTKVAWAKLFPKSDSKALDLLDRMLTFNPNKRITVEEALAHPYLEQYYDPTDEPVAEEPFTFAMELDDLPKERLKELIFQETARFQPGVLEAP
The target in test [6] is Epidermal growth factor receptor (Homo sapiens, UniProt P00533). The test can be described thus: DRUGMATRIX: Protein Tyrosine Kinase, EGF Receptor enzyme inhibition (substrate: Poly(Glu:Tyr)). Type of test: cell-based, Insect cells. Conditions: Not Active = under 50% inhibition at 10 µM.
Chain of Epidermal growth factor receptor (P00533 whole entry): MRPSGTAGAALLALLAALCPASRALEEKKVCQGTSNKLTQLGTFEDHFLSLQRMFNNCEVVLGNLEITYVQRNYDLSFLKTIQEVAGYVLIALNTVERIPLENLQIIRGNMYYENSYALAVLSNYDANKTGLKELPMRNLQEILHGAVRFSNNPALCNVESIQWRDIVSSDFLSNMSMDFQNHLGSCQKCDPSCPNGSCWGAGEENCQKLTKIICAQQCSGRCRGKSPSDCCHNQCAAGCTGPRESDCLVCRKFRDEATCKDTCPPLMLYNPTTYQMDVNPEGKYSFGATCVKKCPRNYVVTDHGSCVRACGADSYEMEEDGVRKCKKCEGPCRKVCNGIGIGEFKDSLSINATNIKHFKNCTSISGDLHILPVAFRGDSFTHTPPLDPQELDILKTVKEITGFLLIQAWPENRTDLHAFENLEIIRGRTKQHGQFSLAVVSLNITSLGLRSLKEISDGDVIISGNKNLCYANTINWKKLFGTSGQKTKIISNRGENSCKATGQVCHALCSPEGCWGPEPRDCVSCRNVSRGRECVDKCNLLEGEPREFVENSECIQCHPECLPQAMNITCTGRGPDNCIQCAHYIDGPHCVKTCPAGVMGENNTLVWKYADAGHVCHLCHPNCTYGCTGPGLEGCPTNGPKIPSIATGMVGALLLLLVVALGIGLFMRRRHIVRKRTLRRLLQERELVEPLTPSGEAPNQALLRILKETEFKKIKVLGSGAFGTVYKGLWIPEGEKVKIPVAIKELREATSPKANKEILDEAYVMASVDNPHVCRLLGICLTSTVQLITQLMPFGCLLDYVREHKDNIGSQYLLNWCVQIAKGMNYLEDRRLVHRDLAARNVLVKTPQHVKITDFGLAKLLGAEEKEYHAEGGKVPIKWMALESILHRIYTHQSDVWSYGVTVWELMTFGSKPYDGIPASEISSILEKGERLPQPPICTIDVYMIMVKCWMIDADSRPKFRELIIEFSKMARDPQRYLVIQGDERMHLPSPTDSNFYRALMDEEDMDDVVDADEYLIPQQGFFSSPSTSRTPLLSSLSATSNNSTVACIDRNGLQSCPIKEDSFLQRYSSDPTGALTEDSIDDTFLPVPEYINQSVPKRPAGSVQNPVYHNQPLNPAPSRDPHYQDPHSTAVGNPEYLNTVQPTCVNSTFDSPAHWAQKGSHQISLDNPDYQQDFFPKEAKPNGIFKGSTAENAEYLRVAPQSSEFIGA
Test [7] has as its target T2, Adenosine receptor A1 (Homo sapiens, UniProt P30542).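 Also: radioligand binding assay at the adenosine A1 receptor, with DPCPX serving as the labelled ligand; in other assays of this panel Not Active means under 50% inhibition at 10 µM.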
T2 sequence (P30542 whole entry): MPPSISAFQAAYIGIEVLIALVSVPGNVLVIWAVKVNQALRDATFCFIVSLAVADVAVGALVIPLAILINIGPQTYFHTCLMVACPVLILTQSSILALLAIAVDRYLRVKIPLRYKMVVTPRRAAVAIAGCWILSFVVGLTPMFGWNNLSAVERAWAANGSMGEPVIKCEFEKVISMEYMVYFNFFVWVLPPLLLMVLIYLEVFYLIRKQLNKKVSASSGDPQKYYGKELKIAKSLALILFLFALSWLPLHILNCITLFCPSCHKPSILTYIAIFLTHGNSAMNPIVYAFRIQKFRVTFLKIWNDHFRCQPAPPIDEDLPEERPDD
The test is classed as cell membranes, CHO, Membrane. Conditions: cho.

Consider `Cc1c(C)c2c(c(C)c1O)CCC(C)(CN1CCN(c3cc(N4CCCC4)nc(N4CCCC4)n3)CC1)O2` (stereo unspecified), for which the IC50 entry in test [1] (sf9) was “Not Active”; in test [2], “Not Active”; in test [3], “Not Active”; in test [4], “Not Active”; in test [5] (read-out: IC50), 4960 nM; in test [6] (insect cells), “Not Active”. Besides, in test [7], the IC50 entry was “Not Active”. Moreover, the Ki result in test [2], in test [3] and in test [4] was “Not Active” throughout.

As for `COc1ccc(CCN(C)CCCC(C#N)(c2ccc(OC)c(OC)c2)C(C)C)cc1OC` (stereo unspecified), the 50% inhibitory concentration (IC50) entry is “Not Active” in test [2]; 5520 nM in test [3] (read-out: IC50); “Not Active” in test [4]; “Not Active” in test [5]; “Not Active” in test [6] (insect cells); “Not Active” in test [7]. Also, the values for the Ki entry in test [2], in test [3] (read-out: Ki) and in test [4] were “Not Active”, 3680 nM and “Not Active”, respectively.

For the molecule `CC(C)Cc1ccc([C@@H](C)C(=O)O)cc1` [(R)-IBUPROPHEN], the IC50 result in test [1] (sf9), in test [2], in test [3], in test [4], in test [5] and in test [6] (insect cells) was “Not Active” in each case. In addition, the IC50 entry in test [7] is listed as “Not Active”. Further, the Ki entry in test [2], in test [3] and in test [4] was “Not Active” each time.

As to `CN(C)CCOC(c1ccccc1)c1ccccc1` [DIPHENHYDRAMINE], the IC50 entry in test [1] (sf9), in test [5], in test [6] (insect cells) and in test [7] was “Not Active” in each case.

Take `Clc1ccc(COC(Cn2ccnc2)c2ccc(Cl)cc2Cl)cc1` (stereo unspecified) [ECONAZOLE]: the IC50 entry was “Not Active” in test [5] and 32400 nM in test [6] (read-out: IC50).

For `CCN(CC)CCOc1ccc(/C(=C(/Cl)c2ccccc2)c2ccccc2)cc1` [ENCLOMIPHENE], the results for the IC50 entry in test [5], in test [6] (read-out: IC50) and in test [7] were “Not Active”, 1050 nM and “Not Active”, respectively.

`Fc1ccc(C(c2ccc(F)cc2)N2CCN(C/C=C/c3ccccc3)CC2)cc1` [FLUNARIZINE]: the IC50 is 581 nM in test [1] (read-out: IC50), “Not Active” in test [5], “Not Active” in test [6] (insect cells) and “Not Active” in test [7]. The Ki in test [1] worked out at 218 nM.

As for `CNCCC(Oc1ccc(C(F)(F)F)cc1)c1ccccc1` (stereo unspecified) [FLUOXETINE], the IC50 result in test [1] (sf9), in test [5], in test [6] (insect cells) and in test [7] was “Not Active” in each case.

In the case of `Cc1ccc(NC(=O)c2ccc(CN3CCN(C)CC3)cc2)cc1Nc1nccc(-c2cccnc2)n1` [IMATINIB], the IC50 result in test [1] (sf9) and in test [7] was “Not Active” throughout.

On to `CC(C)Oc1ccc2c(=O)c(-c3ccccc3)coc2c1` [IPRIFLAVONE], for which the IC50 result in test [1] (sf9), in test [2], in test [3], in test [4], in test [5] and in test [6] (insect cells) was “Not Active” throughout. For the same molecule, the IC50 result in test [7] is listed as “Not Active”. Moreover, the Ki result in test [2], in test [3] and in test [4] was “Not Active” throughout.

`CC(C)NCC(O)c1ccc(O)c(O)c1` (stereo unspecified) [ISOPROTERENOL]: the half-inhibitory concentration (IC50) result in test [1] (sf9), in test [2], in test [3], in test [4], in test [5] and in test [6] (insect cells) was “Not Active” each time. For the same molecule, the IC50 result in test [7] was “Not Active”. Further, the Ki entry in test [2], in test [3] and in test [4] was “Not Active” throughout.

Take `CNC1(c2ccccc2Cl)CCCCC1=O` (stereo unspecified) [KETAMINE]: the IC50 result in test [1] (sf9), in test [2], in test [3], in test [4], in test [5] and in test [6] (insect cells) was “Not Active” in each case. In addition, in test [7], the IC50 result is listed as “Not Active”. The Ki result in test [2], in test [3] and in test [4] was “Not Active” in each case.

As to `N#Cc1ccc(C(c2ccc(C#N)cc2)n2cncn2)cc1` [LETROZOLE], the IC50 entry in test [1] (sf9), in test [2], in test [3], in test [4], in test [5] and in test [6] (insect cells) was “Not Active” in each case. Also, the IC50 entry in test [7] is listed as “Not Active”. Besides, the Ki entry in test [2], in test [3] and in test [4] was “Not Active” throughout.

Turning to `CCN1CCC[C@H]1CNC(=O)c1cc(S(N)(=O)=O)ccc1OC` [LEVOSULPIRIDE], the IC50 entry in test [1] (sf9), in test [2], in test [3], in test [4], in test [5] and in test [6] (insect cells) was “Not Active” each time. The IC50 entry in test [7] is on record as “Not Active”. In addition, the Ki entry in test [2], in test [3] and in test [4] was “Not Active” each time.

As for `CCN(CC)CC(=O)Nc1c(C)cccc1C` [LIDOCAINE], the IC50 result in test [1] (sf9), in test [2], in test [3], in test [4], in test [5] and in test [6] (insect cells) was “Not Active” throughout. Besides, the IC50 entry in test [7] is “Not Active”. For the same molecule, the Ki result in test [2], in test [3] and in test [4] was “Not Active” each time.

For the molecule `O=C1Nc2ccc(Cl)cc2C(c2ccccc2Cl)=NC1O` (stereo unspecified) [LORAZEPAM], the IC50 result in test [1] (sf9), in test [2], in test [3], in test [4], in test [5] and in test [6] (insect cells) was “Not Active” each time. Besides, the IC50 entry in test [7] is “Not Active”. Also, the Ki entry in test [2], in test [3] and in test [4] was “Not Active” each time.

For `CO[C@@H]1[C@@H](OC)[C@H](C)[C@@](O)(CC(=O)O)O[C@H]1[C@H](C)[C@H]1O[C@@]2(CC[C@@](C)([C@H]3CC[C@@](C)([C@@H]4O[C@@H]([C@H]5O[C@](C)(O)[C@H](C)C[C@@H]5C)C[C@@H]4O[C@@H]4C[C@H](OC)[C@@H](OC)[C@H](C)O4)O3)O2)C[C@H](O)[C@H]1C` [MADURAMICIN ACID], the IC50 in test [1] (read-out: IC50) is 180 nM; in test [2], “Not Active”; in test [3] (read-out: IC50), 607 nM; in test [4], “Not Active”; in test [5], “Not Active”; in test [6] (insect cells), “Not Active”. Further, the half-maximal inhibitory concentration (IC50) entry in test [7] is given as “Not Active”. Moreover, the Ki was 67 nM in test [1], “Not Active” in test [2], 405 nM in test [3] (read-out: Ki) and “Not Active” in test [4].

Consider `COc1c2occc2cc2ccc(=O)oc12` [METHOXSALEN], for which the IC50 entry in test [1] (sf9), in test [2], in test [3], in test [4], in test [5] and in test [6] (insect cells) was “Not Active” in each case. Also, the IC50 entry in test [7] is reported as “Not Active”. The Ki entry in test [2], in test [3] and in test [4] was “Not Active” in each case.

With `CN[C@H]1CC[C@@H](c2ccc(Cl)c(Cl)c2)c2ccccc21` [SERTRALINE], the 50% inhibitory concentration (IC50) result in test [5], in test [6] (insect cells) and in test [7] was “Not Active” in each case.

As to `Cn1c(=O)c2nc[nH]c2n(C)c1=O.O` [THEOPHYLLINE], the IC50 entry in test [1] (sf9), in test [2], in test [3], in test [4], in test [5] and in test [6] (insect cells) was “Not Active” in each case. The Ki entry in test [2], in test [3] and in test [4] was “Not Active” throughout.

For the molecule `Clc1ccccc1CN1CCc2sccc2C1` [TICLOPIDINE], the IC50 entry in test [2] was “Not Active”; in test [3] (read-out: IC50), 2240 nM; in test [4] it was “Not Active”; in test [5], “Not Active”; in test [6] (insect cells), “Not Active”; in test [7], “Not Active”. The values for the Ki entry in test [2], in test [3] (read-out: Ki) and in test [4] were “Not Active”, 1490 nM and “Not Active”, respectively.
